34 molecules from PubChem BioAssay (NCI) can be followed below.

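How tested: cells in 96-well plates exposed to compound for 48 hours at five concentrations. The concentration for 50% growth inhibition is given as GI50. TGI: total growth inhibition.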 Some results are limits rather than exact numbers.

Test systems include OVCAR-5 ovarian; DMS 114 small cell lung; LXFL 529 NSCLC; SNB-78 CNS; M19-MEL melanoma; KM20L2 colon; DLD-1 colon; DMS 273 small cell lung; MDA-N; XF 498 CNS.
What all share (experiment): NCI anticancer screen, dose series, 48 h

`O=C(OCC1CC(C2(O)CCCCC2)C(=O)O1)c1ccccc1` (stereo not drawn) came in with a TGI in the experiment with OVCAR-5 ovarian above 100 µM.
With `COc1cc(Cn2c3ccccc3c3cc(C)cc(OC)c32)cc2c1[nH]c1ccccc12`, the TGI with DMS 114 small cell lung, in the experiment on OVCAR-5 ovarian, in the experiment with LXFL 529 NSCLC, in the experiment on SNB-78 CNS, in the experiment on M19-MEL melanoma and in the experiment with KM20L2 colon was above 25 µM throughout. Besides, the TGI with DLD-1 colon and with DMS 273 small cell lung was above 25 µM in each case. For the same molecule, the values for the GI50 in the experiment on LXFL 529 NSCLC, in the experiment on KM20L2 colon and in the experiment with DMS 273 small cell lung were 17 µM, 15.4 µM and 15.2 µM, respectively.
As to `COc1c(N2CCCCC2)c2c(=O)c3ccccc3oc2c2c3ccccc3n(C)c12`, the TGI in the experiment on OVCAR-5 ovarian and with MDA-N was above 100 µM each time.
In the case of `O=C(O)c1ccc(Nc2nc3ccc(C(F)(F)F)cc3nc2C(=O)O)cc1`, the TGI with OVCAR-5 ovarian and in the experiment on MDA-N was above 100 µM throughout.
Consider `CC(Cn1c(=O)oc2ccccc21)N(C)C` (stereo not drawn), for which the TGI with OVCAR-5 ovarian and in the experiment with MDA-N was above 100 µM throughout.
In the case of `COC(=O)CCc1cc(OC)c2oc(-c3ccc(OC)c(OC)c3)c(CO)c2c1`, the TGI in the experiment with OVCAR-5 ovarian and with MDA-N was above 100 µM throughout.
For `C/C1=C\CC[C@@]2(C)O[C@@H]2C[C@@H]2[C@H](C/C(C)=C/CC1)OC(=O)[C@]21CO1`, the TGI with OVCAR-5 ovarian and in the experiment with MDA-N was above 100 µM in each case.
In the experiment on OVCAR-5 ovarian, `O=[N+]([O-])c1ccc(C2NC(=S)NC3c4cc([N+](=O)[O-])ccc4CCCC23)cc1` (stereo not drawn) had a TGI above 100 µM.
`CC1=NC(=O)CNN1C1=NNC2(C(=O)N1)c1ccccc1-c1ccccc12`: the TGI in the experiment on OVCAR-5 ovarian and in the experiment on MDA-N was above 100 µM each time.
For the molecule `O=C1NC(NNc2ccccc2)=N/C1=C\c1ccco1`, the TGI with OVCAR-5 ovarian and with MDA-N was above 100 µM throughout.
Regarding `CC(C)C1CCC(=O)CC1CCCCC1CC(=O)CC1O[Si](C)(C)C(C)(C)C` (stereo not drawn), the TGI in the experiment with OVCAR-5 ovarian amounted to 26.2 µM; in the experiment on MDA-N, 21.1 µM.
On to `CC(C)OP(=O)(OC(C)C)/C(=N/Nc1ccc([N+](=O)[O-])cc1)NNC(=O)c1ccccc1`, for which the TGI with DMS 114 small cell lung was 43.1 µM; in the experiment with OVCAR-5 ovarian it was above 100 µM; in the experiment with LXFL 529 NSCLC, 68.5 µM; with SNB-78 CNS, 80.4 µM; in the experiment on XF 498 CNS, 48.1 µM; with M19-MEL melanoma, 41.2 µM. The TGI with KM20L2 colon and with DLD-1 colon was above 100 µM in each case.
For `O=C(/C=C/c1ccc(Cl)cc1)c1nc2ccccc2[nH]1`, the TGI with OVCAR-5 ovarian was above 100 µM.
Take `S=C1C(CCCOCc2ccccc2)C2CCCC23CC2(CCN13)OCCS2` (stereo not drawn): the TGI in the experiment with OVCAR-5 ovarian and in the experiment on MDA-N was above 10 µM each time.
Consider `CC(NNC(=S)N1CCCC1)c1cccnn1` (stereo not drawn), for which the results for the TGI in the experiment on OVCAR-5 ovarian and with MDA-N were 8.71 µM and above 100 µM, respectively.
Regarding `CCOC(=O)NC(C(F)(F)F)(C(F)(F)F)P(=O)(OCC)OCC`, the TGI in the experiment with OVCAR-5 ovarian and with MDA-N was above 100 µM each time.
`CN(C)C1(N(C)C)Oc2c(c(=O)n(C)c(=O)n2C)C(c2ccc(F)cc2)C1(F)F` (stereo not drawn) showed a TGI with OVCAR-5 ovarian above 100 µM.
In the case of `CCCC1(N2C(=O)c3ccc4c5c(ccc(c35)C2=O)N(C2(CCC)CCCCC2)C4=O)CCCCC1`, the TGI in the experiment on OVCAR-5 ovarian and with MDA-N was above 100 µM each time.
In the case of `O=C1Nc2n[nH]c(=S)n2NC12c1ccccc1-c1ccccc12`, the TGI with OVCAR-5 ovarian and in the experiment on MDA-N was above 100 µM each time.
Regarding `COC(=O)N1C2C(C[C@@]1(C)C(=O)OC)c1ccccc1N2S(=O)(=O)c1ccccc1` (stereo partly drawn), the TGI in the experiment on OVCAR-5 ovarian and in the experiment on MDA-N was above 100 µM in each case.
With `C[C@@]12C[C@@H](c3ccccc3O1)N1CCCSC1=N2`, the TGI in the experiment on OVCAR-5 ovarian and in the experiment on MDA-N was above 100 µM in each case.
With `Cc1ccc(/C=C2\CCS(=O)(=O)c3ccccc3C2=O)cc1`, the values for the TGI in the experiment on OVCAR-5 ovarian and in the experiment on MDA-N were 90.7 µM and 77.2 µM, respectively.
As for `N#Cc1c2c(c(Nc3cccc(C(F)(F)F)c3)n3c1nc1ccccc13)CCCC2`, the TGI in the experiment with OVCAR-5 ovarian came out at 46.6 µM; in the experiment with MDA-N, 56.7 µM.
As to `CC1=C(C(=O)NNC(=O)c2ccccc2O)CC(C(=O)NNC(=O)c2ccccc2O)=C(C)N1`, the TGI in the experiment on OVCAR-5 ovarian and in the experiment on MDA-N was above 100 µM each time.
`O=C(O)CCC1(CCC(=O)O)CCCCCCCCC(CCC(=O)O)(CCC(=O)O)C(=O)C1=O` returned a TGI in the experiment with OVCAR-5 ovarian above 100 µM.
Take `COc1cccc(C2c3cc4c(cc3OC(NNC(N)=O)C2C)OCO4)c1OC` (stereo not drawn): the TGI was above 100 µM with OVCAR-5 ovarian and 82.7 µM in the experiment on MDA-N.
Regarding `O=C(N/N=C\c1ccc(Cl)cc1)Nc1cccc2ccccc12`, the TGI is above 100 µM in the experiment with OVCAR-5 ovarian and above 21.3 µM with MDA-N.
`CCOC(=O)c1c(Br)c(-c2ccc([N+](=O)[O-])cc2)c(Br)n1C`: the TGI in the experiment on OVCAR-5 ovarian and in the experiment with MDA-N was above 10 µM throughout.
In the case of `COc1ccc2nc3c([N+](=O)[O-])ccc4c3c(c2c1)N=CN4CCN(C)C`, the TGI was found to be 23.3 µM in the experiment on OVCAR-5 ovarian and 16.9 µM in the experiment with MDA-N.
Take `COc1ccc(C(SCCO)(c2ccc(OC)cc2)c2ccc(OC)cc2)cc1`: the TGI in the experiment on OVCAR-5 ovarian was 79.7 µM; with MDA-N, 18.1 µM.
For the molecule `Cc1cc(S(=O)(=O)Nc2nnc3c(Cl)cc(C(F)(F)F)cn23)c(S)cc1Cl`, the TGI with OVCAR-5 ovarian and in the experiment with MDA-N was above 100 µM throughout.
Consider `CCCCCCc1cc2cc(-c3cn4ccccc4n3)c(=O)oc2cc1O`, for which the values for the TGI in the experiment on OVCAR-5 ovarian and with MDA-N were 51.7 µM and 18.9 µM, respectively.
For `Nc1nc(N)c2c(-c3ccccc3)ccnc2n1`, in that order: above 100 µM and above 100 µM.
As to `CC(=O)c1sc2c(c1OC(=O)c1ccccc1)c(=O)n(-c1ccccc1)c(=S)n2-c1ccccc1`, the TGI in the experiment on OVCAR-5 ovarian is 17.1 µM; with MDA-N it was 27.2 µM.
